Where two headings read alike, the source gives them in different places.
How the values were obtained:
human serum albumin [1] = biological target: T1, human serum albumin (Homo sapiens, UniProt P02768); parameters: method as in Valko et. al. or Yamazaki et al. [3, 4]; conditions: calibration reference substances; ref Valko et. al. or Yamazaki et al. [3, 4]; cited from earlier work
T1 construct: purchased Daicel Chemical Industries, purchased from Chiral Technologies Europe (Illkirch, France) Chiralpak HSA (5 μm, 50 × 3 mm)

human serum albumin [2] = biological target: T1, human serum albumin; test: human serum albumin binding, HPLC on Chiralpak HSA column; format: in vitro ADME; conditions: for Log K HSA: calibration reference substances, logarithmic K from the literature HSA binding, ref [3, 4]; for bound to HSA: HPLC, Chiralpak HSA column
Method: High in vivo plasma protein binding increases the plasma half-life of the radiopharmaceutical and therefore might offer beneficiary effects on the tracer distribution (higher uptake into target tissue) but can also lead to increased background activity especially at early time points. In general, drugs binding to plasma proteins with high affinity feature moderate to high lipophilicity, in many cases due to halogenated aromatic groups. […] Human albumin binding was determined, applying a modified HPLC method.
Mobile phase A was an ammonium acetate buffer (50 mM, pH 6.9), mobile phase B was 2-propanol, the flow rate was 0.5 mL/min, and equilibration with 0% B for 3 min was followed by a gradient of 0% B to 20% B to the end of each run within 45 min. To check the column performance and to conduct the non-linear regression, the HSA column was calibrated each day with nine reference substances. Afterward, the PSMA inhibitors with unknown HSA binding were measured. The retention times and factors together with correlation curve are found in Additional file 1.
HSA binding experiments were performed as previously described. […] For each run, 10 µL of the solution containing the inhibitor was injected into the RP-HPLC system and the retention time measured. […] Non-linear regression was established with OriginPro 2016G.

PSMA [3] = biological target: T2, PSMA (Homo sapiens, UniProt Q04609); conditions: LNCaP cells 150,000 cells/well, 4 °C, 1 h, c(125I-IBA) = 0.2 nM; mean ± SD; ref [17]; read-out: IC50 (affinity to PSMA); cited from earlier work
T2 construct: endogenous in cells; host or cells: LNCaP cells (CLS: 300265)

PSMA [4] = biological target: T2, PSMA; test: competitive binding assay on LNCaP cells (radioligand 125I-IBA); conditions: read-out: IC50 (affinity to PSMA)
Method: The effect of the lipophilic (aromatic) modifications in the spacer unit of the acetylated PSMA inhibitors 1–9 on the IC50 to PSMA was determined in a competitive binding assay on PSMA-expressing LNCaP cells.
The PSMA affinity was determined as described previously. In brief, 150,000 LNCaP cells were seeded into 24-well plates one day prior to the experiment. […] After removal of the supernatant, the cells were washed once with HBSS and subsequently lysed with 1 n NaOH. Both fractions were quantified in a γ-counter. Using the Graphpad Prism software, binding curves were plotted and IC50 values were extracted. Three independent determinations were performed in triplicate for each compound.

[5] = LNCaP cells 150,000 cells/well, 4 °C, 1 h, c(125I-IBA) = 0.2 nM, mean ± SD (n = 3)

T1 sequence (P02768 25-609): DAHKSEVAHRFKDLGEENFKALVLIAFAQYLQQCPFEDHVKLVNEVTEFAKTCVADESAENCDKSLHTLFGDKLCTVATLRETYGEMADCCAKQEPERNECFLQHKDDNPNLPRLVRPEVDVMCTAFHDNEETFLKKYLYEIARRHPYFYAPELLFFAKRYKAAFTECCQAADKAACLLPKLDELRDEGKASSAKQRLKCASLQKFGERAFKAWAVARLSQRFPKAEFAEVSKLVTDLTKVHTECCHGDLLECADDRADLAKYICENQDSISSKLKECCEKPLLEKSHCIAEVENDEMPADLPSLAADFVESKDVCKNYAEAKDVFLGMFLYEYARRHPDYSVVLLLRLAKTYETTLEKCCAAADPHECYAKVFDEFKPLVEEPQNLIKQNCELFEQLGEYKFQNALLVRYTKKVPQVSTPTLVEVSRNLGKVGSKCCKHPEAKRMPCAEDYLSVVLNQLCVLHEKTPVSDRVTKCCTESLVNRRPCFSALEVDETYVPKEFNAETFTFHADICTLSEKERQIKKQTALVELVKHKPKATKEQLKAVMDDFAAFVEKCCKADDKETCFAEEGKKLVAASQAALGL
T2 sequence (Q04609 whole entry): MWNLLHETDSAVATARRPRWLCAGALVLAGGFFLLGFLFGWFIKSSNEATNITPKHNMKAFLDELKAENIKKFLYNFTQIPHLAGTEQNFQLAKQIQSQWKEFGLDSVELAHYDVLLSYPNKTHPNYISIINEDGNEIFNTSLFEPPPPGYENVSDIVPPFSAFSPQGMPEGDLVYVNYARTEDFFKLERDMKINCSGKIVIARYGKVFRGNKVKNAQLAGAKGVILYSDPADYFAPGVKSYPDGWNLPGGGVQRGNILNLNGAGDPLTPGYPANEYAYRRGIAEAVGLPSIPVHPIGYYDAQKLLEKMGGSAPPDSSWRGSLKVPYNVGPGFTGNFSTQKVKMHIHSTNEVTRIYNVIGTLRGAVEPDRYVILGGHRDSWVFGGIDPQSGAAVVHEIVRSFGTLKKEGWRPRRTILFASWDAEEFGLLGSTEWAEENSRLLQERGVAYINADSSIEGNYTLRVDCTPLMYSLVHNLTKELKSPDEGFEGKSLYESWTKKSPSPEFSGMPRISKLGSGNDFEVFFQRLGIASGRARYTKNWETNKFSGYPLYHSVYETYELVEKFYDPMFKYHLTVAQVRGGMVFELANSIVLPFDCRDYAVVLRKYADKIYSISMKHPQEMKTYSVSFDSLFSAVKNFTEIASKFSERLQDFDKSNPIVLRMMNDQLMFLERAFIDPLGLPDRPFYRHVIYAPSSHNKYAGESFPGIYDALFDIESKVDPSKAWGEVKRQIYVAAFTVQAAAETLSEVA

Question: What does the source list for Nc1ccccc1 [Aniline]?
Answer: Lit. HSA% (literature value of human serum albumin binding) (human serum albumin [1]): 14.06%; Log K HSA (human serum albumin [2]): -0.79

Question: Which “Lit. HSA% (literature value of human serum albumin binding)” value (from here on “Lit. HSA%”) (human serum albumin [1]) does the source give for O=C(O)c1ccccc1 [Benzoic Acid] here?
Answer: Its value is 34.27%.

Question: With COc1ccc(Cl)cc1C(=O)NCCc1ccc(S(=O)(=O)NC(=O)NC2CCCCC2)cc1 [Glibenclamide] as the molecule, how does the “Lit. HSA%” value (human serum albumin [1]) read?
Answer: Its value is 99.00%.

Question: And the “Log K HSA” value (human serum albumin [2])?
Answer: Its value is 1.69.

Question: Which IC50 (PSMA [3]) does the source give for O=C(O)CC[C@H](NC(=O)N[C@@H](CCCCNC(=O)CCCCCCC(=O)NCCCC[C@@H](NC(=O)[C@@H](Cc1ccccc1)NC(=O)[C@@H](Cc1ccc(O)c(I)c1)NC(=O)CCC(C(=O)O)N1CCN(CC(=O)O)CCN(CC(=O)O)CCN(CC(=O)O)CC1)C(=O)O)C(=O)O)C(=O)O (some centres unmarked) [PSMA I&T, DOTAGA-(I-y)fk(Sub-KuE)] here?
Answer: Its IC50 is 10.2 ± 3.5 nM.

Question: With CC(=O)N[C@@H](Cc1ccc(O)cc1)C(=O)N[C@@H](Cc1ccccc1)C(=O)N[C@@H](CCCCNC(=O)CCCCCCC(=O)NCCCC[C@H](NC(=O)N[C@@H](CCC(=O)O)C(=O)O)C(=O)O)C(=O)O [PSMA inhibitor 1, Ac-YFK(Sub-KuE)] as the molecule, how does the IC50 (PSMA [4]) read?
Answer: The IC50 was 15 ± 1.3 nM.

Question: Which IC50 (PSMA [4]) does the source give for CC(=O)N[C@@H](Cc1ccc(O)cc1)C(=O)N[C@@H](Cc1c[nH]c2ccccc12)C(=O)N[C@@H](CCCCNC(=O)CCCCCCC(=O)NCCCC[C@H](NC(=O)N[C@@H](CCC(=O)O)C(=O)O)C(=O)O)C(=O)O [PSMA inhibitor 2, Ac-YWK(Sub-KuE)] here?
Answer: Its IC50 is 6.8 ± 3.3 nM.

Question: With CC(=O)N[C@@H](Cc1ccc(O)cc1)C(=O)N[C@@H](Cc1ccc(-c2ccccc2)cc1)C(=O)N[C@@H](CCCCNC(=O)CCCCCCC(=O)NCCCC[C@H](NC(=O)N[C@@H](CCC(=O)O)C(=O)O)C(=O)O)C(=O)O [PSMA inhibitor 4, Ac-Y-(Biphenyl-A)K(Sub-KuE)] as the molecule, how does the IC50 (PSMA [4]) read?
Answer: Its IC50 is 139 ± 117 nM.

Question: Which IC50 (PSMA [4]) does the source give for CC(=O)N[C@@H](Cc1ccc(O)cc1)C(=O)N[C@@H](Cc1cccc2ccccc12)C(=O)N[C@@H](CCCCNC(=O)CCCCCCC(=O)NCCCC[C@H](NC(=O)N[C@@H](CCC(=O)O)C(=O)O)C(=O)O)C(=O)O [PSMA inhibitor 5, Ac-Y-1-Nal-K(Sub-KuE)] here?
Answer: The IC50 was 4.3 ± 0.9 nM.

Question: For CC(=O)N[C@@H](Cc1ccc(O)cc1)C(=O)N[C@@H](Cc1ccc2ccccc2c1)C(=O)N[C@@H](CCCCNC(=O)CCCCCCC(=O)NCCCC[C@H](NC(=O)N[C@@H](CCC(=O)O)C(=O)O)C(=O)O)C(=O)O [PSMA inhibitor 6, Ac-Y-2-Nal-K(Sub-KuE)], which IC50 (PSMA [4]) is on record?
Answer: The IC50 was 3.9 ± 1.7 nM.

Question: Which IC50 (PSMA [4]) does the source give for CC(=O)N[C@@H](Cc1ccc(O)cc1)C(=O)N[C@@H](Cc1ccc([N+](=O)[O-])cc1)C(=O)N[C@@H](CCCCNC(=O)CCCCCCC(=O)NCCCC[C@H](NC(=O)N[C@@H](CCC(=O)O)C(=O)O)C(=O)O)C(=O)O [PSMA inhibitor 7, Ac-Y(4-NO2-F)K(Sub-KuE)] here?
Answer: Its IC50 is 7.4 ± 0.5 nM.

Question: For CC(=O)N[C@@H](Cc1ccc(O)cc1)C(=O)N[C@@H](Cc1cc(I)c(O)c(I)c1)C(=O)N[C@@H](CCCCNC(=O)CCCCCCC(=O)NCCCC[C@H](NC(=O)N[C@@H](CCC(=O)O)C(=O)O)C(=O)O)C(=O)O [PSMA inhibitor 8, Ac-Y(3,5-di-I-Y)K(Sub-KuE)], which IC50 (PSMA [4]) is on record?
Answer: Its IC50 is 3.8 ± 0.6 nM.

Question: For CC(=O)N[C@@H](Cc1ccc(O)cc1)C(=O)N[C@@H](Cc1ccc(O)c(C)c1)C(=O)N[C@@H](CCCCNC(=O)CCCCCCC(=O)NCCCC[C@H](NC(=O)N[C@@H](CCC(=O)O)C(=O)O)C(=O)O)C(=O)O [PSMA inhibitor 9, Ac-Y(3-CH3-Y)K(Sub-KuE)], which IC50 (PSMA [4]) is on record?
Answer: Its IC50 is 7.2 ± 0.9 nM.

Question: Which IC50 (PSMA [4]; [5]) does the source give for O=C(O)CC[C@H](NC(=O)N[C@@H](CCCCNC(=O)CCCCCCC(=O)NCCCC[C@@H](NC(=O)[C@@H](Cc1ccc2ccccc2c1)NC(=O)[C@@H](Cc1ccc(O)cc1)NC(=O)CCC(C(=O)O)N1CCN(CC(=O)O)CCN(CC(=O)O)CCN(CC(=O)O)CC1)C(=O)O)C(=O)O)C(=O)O (some centres unmarked) [PSMA inhibitor 10, DOTAGA-y-2-nal-k(Sub-KuE)] here?
Answer: Its IC50 is 8.5 ± 2.5 nM.

Question: For O=C(O)CC[C@H](NC(=O)N[C@@H](CCCCNC(=O)[C@@H](Cc1ccc(I)cc1)NC(=O)CCCC(=O)NCCCC[C@@H](NC(=O)[C@@H](Cc1ccc2ccccc2c1)NC(=O)[C@@H](Cc1ccc(O)cc1)NC(=O)CCC(C(=O)O)N1CCN(CC(=O)O)CCN(CC(=O)O)CCN(CC(=O)O)CC1)C(=O)O)C(=O)O)C(=O)O (some centres unmarked) [PSMA inhibitor 11, DOTAGA-y-2-nal-k((I-f)-Glut-KuE)], which IC50 (PSMA [4]; [5]) is on record?
Answer: The IC50 was 4.6 ± 0.9 nM.

Question: Which “Lit. HSA%” value (human serum albumin [1]) does the source give for Oc1ccccc1 [Phenol] here?
Answer: The value was 20.69%.

Question: What about the “Log K HSA” value (human serum albumin [2]) of the same molecule?
Answer: The value was -0.59.

Question: Which “Lit. HSA%” value (human serum albumin [1]) does the source give for CCCN(CCC)S(=O)(=O)c1ccc(C(=O)O)cc1 [Probenecid] here?
Answer: The value was 95.00%.

Question: And the “Log K HSA” value (human serum albumin [2])?
Answer: The value was 1.20.

Question: With “^natGa-DOTAGA-(I-y)fk(Sub-KuE) [^natGa-PSMA I&T]” as the molecule, how does the IC50 (PSMA [3]) read?
Answer: The IC50 was 9.3 ± 3.3 nM.

Question: For “^natGa-DOTAGA-y-2-nal-k((I-f)-Glut-KuE) [^natGa-11]”, which IC50 (PSMA [4]; [5]) is on record?
Answer: Its IC50 is 9.3 ± 2.9 nM.

Question: For “^natGa-DOTAGA-y-2-nal-k(Sub-KuE) [^natGa-10]”, which IC50 (PSMA [4]; [5]) is on record?
Answer: The IC50 was 9.8 ± 3.2 nM.

Question: With “^natLu-DOTAGA-(I-y)fk(Sub-KuE) [^natLu-PSMA I&T]” as the molecule, how does the IC50 (PSMA [3]) read?
Answer: The IC50 was 7.9 ± 2.4 nM.

Question: And the “bound to HSA” value (human serum albumin [2])?
Answer: The value was 79%.

Question: Which IC50 (PSMA [4]; [5]) does the source give for “^natLu-DOTAGA-y-2-nal-k((I-f)-Glut-KuE) [^natLu-11]” here?
Answer: The IC50 was 6.1 ± 1.6 nM.

Question: What about the “bound to HSA” value (human serum albumin [2]) of the same molecule?
Answer: The value was 97%.

Question: With “^natLu-DOTAGA-y-2-nal-k(Sub-KuE) [^natLu-10]” as the molecule, how does the IC50 (PSMA [4]; [5]) read?
Answer: Its IC50 is 2.1 ± 0.8 nM.

Question: What about the “bound to HSA” value (human serum albumin [2]) of the same molecule?
Answer: Its value is 83%.

— publication PMC6104465, “Synthesis and in vitro and in vivo evaluation of urea-based PSMA inhibitors with increased lipophilicity” (EJNMMI Research, 2018)
